A word on the IC50: it is the midpoint of a concentration-inhibition curve.

Each structure is given as a SMILES string. Structures can show the parent of a compound that is named as a salt. A value given as a limit tells only on which side of the number the result lay.

Holding throughout (details): JH1 kinase domain, ADP-Glo
Experiment [1] has as its target T1, human TYK2 kinase domain (JH1) (Homo sapiens, UniProt P29597).
T1 construct: recombinantly generated catalytic kinase (also known as JH1) domain of human JAK1, JAK2, JAK3 and TYK2
T1 sequence (P29597 897-1176 limits assumed): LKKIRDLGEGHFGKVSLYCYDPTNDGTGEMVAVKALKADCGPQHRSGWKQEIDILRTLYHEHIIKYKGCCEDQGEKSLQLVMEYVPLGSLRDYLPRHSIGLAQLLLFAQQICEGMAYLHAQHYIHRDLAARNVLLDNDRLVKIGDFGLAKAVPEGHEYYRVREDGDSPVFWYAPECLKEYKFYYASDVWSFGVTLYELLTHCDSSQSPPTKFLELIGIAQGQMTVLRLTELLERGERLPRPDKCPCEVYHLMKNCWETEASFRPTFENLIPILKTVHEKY
Put plainly: JH1 biochemical assay for TYK2 (ADP-Glo kinase assay, recombinant JH1 catalytic domain, JAK3-974 peptide, 10 μM ATP). The essentials:
(§1)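 Reactions ran 100 min with 50 μM substrate peptide (JAK3-342 for JAK1 at 4 nM enzyme; JAK3-974 for JAK2 0.2 nM, JAK3 0.3 nM, TYK2 2 nM), and ADP formed was read by ADP-Glo luminescence. Eleven-point 3-fold series from 10 or 1 μM; IC50 fitted by 4-parameter logistic model.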

Experiment [2] concerns the target T2, human JAK2 kinase domain (JH1) (Homo sapiens, UniProt O60674).
T2 construct: recombinantly generated catalytic kinase (also known as JH1) domain of human JAK1, JAK2, JAK3 and TYK2
Briefly: JH1 biochemical assay for JAK2 (ADP-Glo kinase assay, recombinant JH1 catalytic domain, JAK3-974 peptide, 15 μM ATP). In a few lines: as §1
(ADP-Glo first removes unused ATP, then detects ADP through luciferase.)

In experiment [3] the target is T3, human JAK3 kinase domain (JH1) (Homo sapiens, UniProt P52333).
T3 construct: recombinantly generated catalytic kinase (also known as JH1) domain of human JAK1, JAK2, JAK3 and TYK2
T3 sequence (P52333 822-1111 limits assumed): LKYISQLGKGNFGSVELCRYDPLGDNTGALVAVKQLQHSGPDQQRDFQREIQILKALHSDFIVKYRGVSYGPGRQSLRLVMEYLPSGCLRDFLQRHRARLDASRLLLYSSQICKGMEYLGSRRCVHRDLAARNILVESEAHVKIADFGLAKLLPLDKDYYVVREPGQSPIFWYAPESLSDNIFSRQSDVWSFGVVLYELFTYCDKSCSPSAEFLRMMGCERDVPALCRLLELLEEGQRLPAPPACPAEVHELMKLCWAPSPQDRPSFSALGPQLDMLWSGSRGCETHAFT
Briefly: JH1 biochemical assay for JAK3 (ADP-Glo kinase assay, recombinant JH1 catalytic domain, JAK3-974 peptide, 4 μM ATP). The essentials:
as §1

Experiment [4] addresses T4, human JAK1 kinase domain (JH1) (Homo sapiens, UniProt P23458).
T4 construct: recombinantly generated catalytic kinase (also known as JH1) domain of human JAK1, JAK2, JAK3 and TYK2
Put plainly: JH1 biochemical assay for JAK1 (ADP-Glo kinase assay, recombinant JH1 catalytic domain, JAK3-342 peptide, 35 μM ATP). In a few lines:
as §1

T4 sequence (P23458 875-1153 limits assumed): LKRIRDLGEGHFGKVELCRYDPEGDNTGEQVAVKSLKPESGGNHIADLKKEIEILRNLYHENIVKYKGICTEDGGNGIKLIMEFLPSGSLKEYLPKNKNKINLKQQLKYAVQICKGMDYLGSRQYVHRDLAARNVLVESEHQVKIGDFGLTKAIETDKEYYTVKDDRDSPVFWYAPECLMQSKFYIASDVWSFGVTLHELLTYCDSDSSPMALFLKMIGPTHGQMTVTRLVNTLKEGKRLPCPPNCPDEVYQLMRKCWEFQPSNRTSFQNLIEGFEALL
T2 sequence (O60674 849-1124 limits assumed): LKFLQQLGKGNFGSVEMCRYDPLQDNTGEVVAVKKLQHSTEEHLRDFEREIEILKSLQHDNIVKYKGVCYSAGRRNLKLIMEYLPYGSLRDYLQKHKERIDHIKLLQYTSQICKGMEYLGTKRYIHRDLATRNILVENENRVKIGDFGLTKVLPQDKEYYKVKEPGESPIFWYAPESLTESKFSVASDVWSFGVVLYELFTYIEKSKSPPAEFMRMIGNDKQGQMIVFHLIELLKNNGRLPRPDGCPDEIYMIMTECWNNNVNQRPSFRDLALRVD

Turning to `CC(O)c1ccc(-c2cc3c(N4C[C@@H](C)[C@@](C#N)(C5CC5)C4=O)ccnn3c2)nc1` (stereo partly drawn) [Example 130, (3R,4S)-3-cyclopropyl-1-(6-(5-(1-hydroxyethyl)pyridin-2-yl)pyrrolo[1,2-b]pyridazin-4-yl)-4-methyl-2-oxopyrrolidine-3-carbonitrile trifluoroacetate], the IC50 is 5 to 20 nM in experiment [1], 100 to 1000 nM in experiment [2], 100 to 1000 nM in experiment [3] and 100 to 1000 nM in experiment [4].
As for `COc1cnc(-c2cc3c(N4C[C@@H](C)[C@@](C#N)(C5CC5)C4=O)ccnn3c2)cn1` [Example 132, (3R,4S)-3-cyclopropyl-1-(6-(5-methoxypyrazin-2-yl)pyrrolo[1,2-b]pyridazin-4-yl)-4-methyl-2-oxopyrrolidine-3-carbonitrile trifluoroacetate], the IC50 fell in the range of 50 to 100 nM in experiment [1], 1000 to 5000 nM in experiment [2], 1000 to 5000 nM in experiment [3] and 1000 to 5000 nM in experiment [4].
With `C[C@@H]1CN(c2ccnn3cc(-c4cncc(C#N)n4)cc23)C(=O)[C@]1(C#N)C1CC1` [Example 133, 6-(4-((3R,4S)-3-cyano-3-cyclopropyl-4-methyl-2-oxopyrrolidin-1-yl)pyrrolo[1,2-b]pyridazin-6-yl)pyrazine-2-carbonitrile trifluoroacetate], the IC50 fell in the range of 20 to 50 nM in experiment [1], 1000 to 5000 nM in experiment [2], 1000 to 5000 nM in experiment [3] and 1000 to 5000 nM in experiment [4].
In the case of `COc1cnc(-c2cc3c(N4C[C@@H](C)[C@@](C#N)(C5CC5)C4=O)ccnn3c2)nc1` [Example 136, (3R,4S)-3-cyclopropyl-1-(6-(5-methoxypyrimidin-2-yl)pyrrolo[1,2-b]pyridazin-4-yl)-4-methyl-2-oxopyrrolidine-3-carbonitrile trifluoroacetate], the IC50 fell in the range of 50 to 100 nM in experiment [1], 5000 to 10000 nM in experiment [2], 1000 to 5000 nM in experiment [3] and 1000 to 5000 nM in experiment [4].
In the case of `Cc1ccc(-c2cc3c(N4C[C@@H](C)[C@@](C#N)(C5CC5)C4=O)ccnn3c2)nn1` [Example 137, (3R,4S)-3-cyclopropyl-4-methyl-1-(6-(6-methylpyridazin-3-yl)pyrrolo[1,2-b]pyridazin-4-yl)-2-oxopyrrolidine-3-carbonitrile trifluoroacetate], the half-inhibitory concentration (IC50) in experiment [1] was 20 to 50 nM; in experiment [2], 100 to 1000 nM; in experiment [3] it was 100 to 1000 nM; in experiment [4], 1000 to 5000 nM.
As to `C[C@@H]1CN(c2ccnn3cc(-c4ncccc4F)cc23)C(=O)[C@]1(C#N)C1CC1` [Example 138, (3R,4S)-3-cyclopropyl-1-(6-(3-fluoropyridin-2-yl)pyrrolo[1,2-b]pyridazin-4-yl)-4-methyl-2-oxopyrrolidine-3-carbonitrile trifluoroacetate], the IC50 in experiment [1] is 20 to 50 nM; in experiment [2] it was > 10000 nM; in experiment [3], 1000 to 5000 nM; in experiment [4], 100 to 1000 nM.
`C[C@@H]1CN(c2ccnn3cc(-c4ncccn4)cc23)C(=O)[C@]1(C#N)C1CC1` [Example 139, ((3R,4S)-3-cyclopropyl-4-methyl-2-oxo-1-(6-(pyrimidin-2-yl)pyrrolo[1,2-b]pyridazin-4-yl)pyrrolidine-3-carbonitrile trifluoroacetate]: the half-maximal inhibitory concentration (IC50) in experiment [1] is > 100 nM; in experiment [2], > 10000 nM; in experiment [3] it was 1000 to 5000 nM; in experiment [4], 1000 to 5000 nM.
As for `Cc1ccc(O)c(-c2cc3c(N4C[C@@H](C)[C@@](C#N)(C5CC5)C4=O)ccnn3c2)n1` [Example 140, (3R,4S)-3-cyclopropyl-1-(6-(3-hydroxy-6-methylpyridin-2-yl)pyrrolo[1,2-b]pyridazin-4-yl)-4-methyl-2-oxopyrrolidine-3-carbonitrile trifluoroacetate], the IC50 in experiment [1] was 50 to 100 nM; in experiment [2], > 10000 nM; in experiment [3], 5000 to 10000 nM; in experiment [4] it was 1000 to 5000 nM.
In the same order, the values of `C[C@@H]1CN(c2ccnn3cc(-c4cccc5nccn45)cc23)C(=O)[C@]1(C#N)C1CC1` [Example 141, (3R,4S)-3-cyclopropyl-1-(6-(imidazo[1,2-a]pyridin-5-yl)pyrrolo[1,2-b]pyridazin-4-yl)-4-methyl-2-oxopyrrolidine-3-carbonitrile trifluoroacetate] are 20 to 50 nM, 1000 to 5000 nM, 1000 to 5000 nM and 1000 to 5000 nM.
The matching figures for `Cc1cc(-c2cc3c(N4C[C@@H](C)[C@@](C#N)(C5CC5)C4=O)ccnn3c2)ncc1F` [Example 142, (3R,4S)-3-cyclopropyl-1-(6-(5-fluoro-4-methylpyridin-2-yl)pyrrolo[1,2-b]pyridazin-4-yl)-4-methyl-2-oxopyrrolidine-3-carbonitrile trifluoroacetate]: 20 to 50 nM, 1000 to 5000 nM, 1000 to 5000 nM and 1000 to 5000 nM.
As to `COc1cccc(-c2cc3c(N4C[C@@H](C)[C@@](C#N)(C5CC5)C4=O)ccnn3c2)n1` [Example 143, (3R,4S)-3-cyclopropyl-1-(6-(6-methoxypyridin-2-yl)pyrrolo[1,2-b]pyridazin-4-yl)-4-methyl-2-oxopyrrolidine-3-carbonitrile trifluoroacetate], the concentration for half-maximal inhibition (IC50) in experiment [1] lay within 20 to 50 nM; in experiment [2], 1000 to 5000 nM; in experiment [3], 100 to 1000 nM; in experiment [4], 100 to 1000 nM.
`Cc1cc(-c2cc3c(N4C[C@@H](C)[C@@](C#N)(C5CC5)C4=O)ccnn3c2)ncc1C#N` [Example 144, 6-(4-((3R,4S)-3-cyano-3-cyclopropyl-4-methyl-2-oxopyrrolidin-1-yl)pyrrolo[1,2-b]pyridazin-6-yl)-4-methylnicotinonitrile trifluoroacetate]: the 50% inhibitory concentration (IC50) fell in the range of 20 to 50 nM in experiment [1], 1000 to 5000 nM in experiment [2], 1000 to 5000 nM in experiment [3] and 1000 to 5000 nM in experiment [4].
Consider `COc1cccnc1-c1cc2c(N3C[C@@H](C)[C@@](C#N)(C4CC4)C3=O)ccnn2c1` [Example 146, (3R,4S)-3-cyclopropyl-1-(6-(3-methoxypyridin-2-yl)pyrrolo[1,2-b]pyridazin-4-yl)-4-methyl-2-oxopyrrolidine-3-carbonitrile trifluoroacetate], for which the IC50 was > 100 nM in experiment [1], 5000 to 10000 nM in experiment [2], 5000 to 10000 nM in experiment [3] and 1000 to 5000 nM in experiment [4].
For the molecule `Cc1nc(-c2cc3c(N4C[C@@H](C)[C@@](C#N)(C5CC5)C4=O)ccnn3c2)ccc1F` [Example 147, (3R,4S)-3-cyclopropyl-1-(6-(5-fluoro-6-methylpyridin-2-yl)pyrrolo[1,2-b]pyridazin-4-yl)-4-methyl-2-oxopyrrolidine-3-carbonitrile trifluoroacetate], the IC50 in experiment [1] is 5 to 20 nM; in experiment [2] it was 100 to 1000 nM; in experiment [3], 100 to 1000 nM; in experiment [4] it was 100 to 1000 nM.
As to `C[C@@H]1CN(c2ccnn3cc(-c4cc(CO)ccn4)cc23)C(=O)[C@]1(C#N)C1CC1` [Example 148, (3R,4S)-3-cyclopropyl-1-(6-(4-(hydroxymethyl)pyridin-2-yl)pyrrolo[1,2-b]pyridazin-4-yl)-4-methyl-2-oxopyrrolidine-3-carbonitrile trifluoroacetate], the IC50 in experiment [1] was in the range of 20 to 50 nM; in experiment [2] it was 100 to 1000 nM; in experiment [3], 100 to 1000 nM; in experiment [4] it was 100 to 1000 nM.

The values are drawn from patent publication US20260297085A1, “1 H-PYRROLO[2,3-B]PYRIDIN-4-YL]-2-OXOPYRROLIDINE-3-CARBONITRILE DERIVATIVES AS TYROSINE KINASE 2 (TYK2) INHIBITORS FOR THE TREATMENT OF INFLAMMATORY DISEASES” (BIOGEN MA INC., priority 2023, published 2026).
